Assay results published in patent US10828326B2, “Compositions and methods for treating and preventing venom related poisoning” (priority 2015, dated 2020).

Tests used:
Crotalus atrox venom = test: Thrombelastography of human plasma pretreated with iron and/or CO, then incubated with Crotalus atrox venom (Example I); format: biochemical; conditions: 0.5 μg/ml venom, 5 min incubation
Description: (§1) Two-hundred mg of lyophilized, pooled venom was obtained from four western diamondback rattlesnakes (Crotalus atrox) for experimentation. Venom was reconstituted in calcium-free phosphate buffered saline (PBS, Sigma-Aldrich, Saint Louis, Mo., USA) at a concentration of 20 mg/ml, aliquoted, and then stored at −80° C. until experimentation at the University of Arizona. Pooled human normal plasma (George King Bio-Medical, Overland Park, Kans., USA) anticoagulated with sodium citrate was rapidly thawed at 37° C. and used for experimentation. To assess the effects of pretreatment of fibrinogen with iron, CO, or both, 1% additions of PBS, ferric chloride (FeCl3, 99.9% pure, Sigma-Aldrich, Saint Louis, Mo., USA) in PBS, or CORM-2 (tricarbonyldichlororuthenium (II) dimer, a CO releasing molecule, Sigma-Aldrich, Saint Louis, Mo., USA) dissolved in dimethyl sulfoxide (DMSO, Sigma-Aldrich, Saint Louis, Mo., USA). The final concentrations of FeCl3 and CORM-2 were 10 μM and 100 μM, respectively; these concentrations are associated with nearly maximal augmenting effects on coagulation kinetics (see, Nielsen V G, et al., Blood Coagul Fibrinolysis 2014; 25:695-702). Plasma was exposed to these various agents for at least 5 min prior to incubations with venom.
(§2) The final volume for all subsequently described plasma sample mixtures was 359.4 μl. Sample composition consisted of 326 μl of plasma; 10 μl of tissue factor reagent (0.1% final concentration in distilled water; Diagnostica Stago S.A.S., Asnieres sur Seine, France) and 3.4 μl of PBS or venom (final concentration 0.5 μg/ml). […] The aforementioned plasma and venom mixtures were placed in a disposable cup in a computer-controlled Thrombelastograph® hemostasis system (Model 5000, Haemoscope Corp., Niles, Ill., USA) and incubated for 5 or 20 min at 37° C., with addition of 20 μl of 200 mM CaCl2) as the last step to initiate clotting. Data were collected at 37° C. for 15 min after 5 min of incubation, whereas samples incubated with venom for 20 min had data collected for 30 min, given the prolonged onset of coagulation and diminished rate of thrombus formation. The following elastic modulus-based parameters previously described (see, Nielsen, et al., 2014, Blood Coagul. Fibrinolysis 25:695-702; Nielsen, et al., 2011, Blood Coagul. Fibrinolysis 22: 443-447); Nielsen V G, et al., Blood Coagul Fibrinolysis 2014; 25:845-850) were determined: time to maximum rate of thrombus generation (TMRTG): this is the time interval (min) observed prior to maximum speed of clot growth; maximum rate of thrombus generation (MRTG): this is the maximum velocity of clot growth observed (dynes/cm^2/sec); and total thrombus generation (TTG, dynes/cm^2), the final viscoelastic resistance observed after clot formation.
(§3) Data are presented as mean+SD. A commercially available statistical program was used for one-way analysis of variance followed by Holm-Sidak post hoc analyses (SigmaStat 3.1, Systat Software, Inc., San Jose, Calif., USA). Graphics depicting viscoelastic data were generated with a commercially available program (OrigenPro 7.5, OrigenLab Corporation, Northampton, Mass., USA; CorelDRAW12, Corel Corporation, Mountain View, Calif., USA).

human plasma = test: Thrombelastography of venom naïve human plasma with iron and/or CO addition (Example I); format: biochemical; conditions: baseline (venom naïve); 10 μM FeCl3 and/or 100 μM CORM-2; compared to plasma without any additions
Description: as §1, §2, §3

[Cl][Fe]([Cl])[Cl] [iron, ferric chloride]
maximum rate of thrombus generation (MRTG), change on venom exposure (Crotalus atrox venom; vs matched venom naïve samples): significantly decreased
maximum rate of thrombus generation (MRTG) (Crotalus atrox venom; vs plasma without additions exposed to venom): significantly greater
time to maximum rate of thrombus generation (TMRTG) (Crotalus atrox venom; vs samples without iron/CO additions or with CO addition alone): significantly smaller
maximum rate of thrombus generation (MRTG) (human plasma): increases
time to maximum rate of thrombus generation (TMRTG) (human plasma): significantly decreases
total thrombus generation (TTG) (human plasma): does not affect
